Experimental data published in ChEMBL document CHEMBL5113553, “Synthesis and Bioactivity of Thiocarboxylic A and Derivatives” (J Nat Prod, 2022).
≈ marks a conversion by molar mass, not a printed value.

What was measured:
[1] = test system: Staphylococcus aureus; test: Antibacterial activity against wild type Staphylococcus aureus USA300 incubated for 24 hrs; format: functional
[2] = test system: Escherichia coli; test: Antibacterial activity against wild type Escherichia coli incubated for 24 hrs; format: functional
[3] = test system: L929; test: Cytotoxicity against mouse L929 cells upto 100 uM measured after 72 hrs by alamar blue assay; format: toxicity, cell-based; settings: l929, 72 h
[4] = test system: Escherichia coli; test: Antibacterial activity against Escherichia coli harboring delta tolC mutant assessed as inhibition of bacterial growth incubated for 24 hrs; format: functional, organism-based
[5] = test system: Candida albicans; test: Antifungal activity against Candida albicans assessed as fungal growth inhibition; format: functional

Row | MIC [1] | MIC [2] | SMILES | Activity [3] | IC50 [4] [µM] | MIC [5] [µg/mL]
1 | > 100 µM | > 100 µM | CC/C=C/C=C/[C@@]1(C)OC(c2ccc(C)s2)=C(C(=O)OC)C1=O | Non-Toxic |  | 
2 | > 100 µM | > 100 µM | CCCC/C=C/C=C/[C@@]1(C)OC(c2ccsc2C)=C(C(=O)OC)C1=O | Non-Toxic |  | 
3 | > 100 µM | > 100 µM | CC/C=C/C=C/[C@@]1(C)OC(c2sccc2C)=C(C(=O)OC)C1=O | Non-Toxic |  | 

Row | SMILES | MIC [1] | MIC [2] | Activity [3] | IC50 [4] [µM] | MIC [5] [µg/mL]
4 | CC/C=C/C=C/[C@@]1(C)OC(c2ccsc2C)=C(C(=O)OC)C1=O | 1.7 µg/mL | 1.7 µg/mL | Non-Toxic | 44 | 1.7 (≈ 5.11 µM)
